This is an account of results in patent US7291622B2, “Medical uses of carbamate-substituted pyrazolo-pyridine derivatives” (Bayer Aktiengesellschaft, priority 2000, dated 2007).

For the assay, the system named is rabbit aorta rings. Nature of the assay: Vasorelaxant effect in vitro (phenylephrine-contracted rabbit aorta rings). The settings on record: Oryctolagus cuniculus; rabbit aortic rings, phenylephrine contraction; concentration reducing height of control contraction by 50%. How it is done:
Vasorelaxant Effect In Vitro
Rabbits are stunned by a blow to the back of the neck and are exsanguinated. The aorta is removed, freed of adherent tissue and divided into rings 1.5 mm wide, which are put singly under tension in 5 ml organ baths containing carbogen-gassed Krebs-Henseleit solution at 37° C. with the following composition (mM): NaCl: 119; KCl: 4.8; CaCl2×2H2O: 1; MgSO4×7H2O: 1.4; KH2PO4: 1.2; NaHCO3: 25; glucose: 10. The force of contraction is detected with Statham UC2 cells, amplified and digitized via A/D converters (DAS-1802 HC, Keithley Instruments Munich) and recorded in parallel on chart recorders. A contraction is generated by adding phenylephrine to the bath cumulatively in increasing concentration. After several control cycles, the substance to be investigated is investigated in each further run in increasing dosage in each case, and the height of the contraction is compared with the height of the contraction reached in the last preceding run. The concentration necessary to reduce the height of the control value by 50% (IC50) is calculated from this. The standard application volume is 5 μl, and the DMSO content in the bath solution corresponds to 0.1%.
For orientation: IC50 means the concentration that gives 50% inhibition. Lower therefore signals greater potency in that assay. In turn, `Nc1nc(-c2nn(Cc3ccccc3F)c3ncccc23)ncc1CC(=O)N1CCOCC1` [Example 2] came in with an IC50 of 650 nM.

On to `C=CCN(CC=C)C(=O)Oc1cnc(-c2nn(Cc3ccccc3F)c3ncccc23)nc1N` [Example 11], for which the IC50 came to 520 nM.

`CCOC(=O)CN(C(=O)Oc1cnc(-c2nn(Cc3ccccc3F)c3ncccc23)nc1N)C(C)COC` (centres unmarked) [Example 15]: it took 320 nM to reach half-maximal inhibition (IC50).

Take `CN(C)C(=S)Oc1cnc(-c2nn(Cc3ccccc3F)c3ncccc23)nc1N` [Example 19]: inhibition was half-maximal at 420 nM (IC50).

Consider `CCN(CC)C(=O)Nc1nc(-c2nn(Cc3ccccc3F)c3ncccc23)ncc1OC(=O)N(CC)CC` [Example 26, 4-{[(Diethylamino)carbonyl]amino}-2-[1-(2-fluorobenzyl)-1H-pyrazolo[3,4-b]pyridin-3-yl]-5-pyrimidinyl diethylcarbamate], for which it took 340 nM to reach half-maximal inhibition (IC50).
